Test results: the supplement of paper PMC10307832

Tests used:
Assay in all cases: relative viability (nuclei count vs DMSO), 5 days (fraction); higher = more cells survive
[1] = compound: CN(C)C(=N)NC(=N)N [Metformin] + Cc1cc(Nc2cc(N3CCN(C)CC3)nc(Sc3ccc(NC(=O)C4CC4)cc3)n2)n[nH]1 [Tozasertib] (partner 0.1 µM)
Procedure, shortened: (§1)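 After 5 days of treatment, lung cancer cells in 1536-well plates were fixed and stained in a single step (final 0.05% Triton X-100, 1% formaldehyde, 1 ug/ml Hoechst) and their nuclei counted on 4× images. Treatment had been applied by pin tool the day after seeding as one drug alone or as a fixed anchor-drug dose with five library-drug doses (not always all listed) in √10 steps. Relative viability is the nuclei count of treated wells divided by that of vehicle wells, and values are medians of duplicate plates.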

[2] = compound: N#CC1(c2ccc(NC(=O)c3cccnc3NCc3ccncc3)cc2)CCCC1 [Apatinib] + CC(C)C[C@H](NC(=O)[C@H](Cc1ccccc1)NC(=O)c1cnccn1)B(O)O [Bortezomib] (partner 0.002 µM)
Procedure, shortened: as §1

[3] = compound: N#CC1(c2ccc(NC(=O)c3cccnc3NCc3ccncc3)cc2)CCCC1 [Apatinib] + COc1cc2c(Oc3ccc(NC(=O)C4(C(=O)Nc5ccc(F)cc5)CC4)cc3F)ccnc2cc1OCCCN1CCOCC1 [Foretinib] (partner 0.25 µM)
Procedure, shortened: as §1

[4] = compound: N#CC1(c2ccc(NC(=O)c3cccnc3NCc3ccncc3)cc2)CCCC1 [Apatinib] + C[C@]1(O)C[C@@H](c2nc(-c3ccc4ccc(-c5ccccc5)nc4c3)c3c(N)nccn32)C1 [Linsitinib] (partner 1 µM)
Procedure, shortened: as §1

Row | Cell Line | relative viability ([1]; first compound 10 µM) | relative viability ([1]; first compound 31.62 µM) | relative viability ([1]; first compound 100 µM) | relative viability ([1]; first compound 316.23 µM) | relative viability ([1]; first compound 1000 µM) | relative viability ([2]; first compound 0.08 µM) | relative viability ([2]; first compound 0.253 µM) | relative viability ([2]; first compound 0.8 µM) | relative viability ([2]; first compound 2.53 µM) | relative viability ([2]; first compound 8 µM) | relative viability ([3]; first compound 0.08 µM) | relative viability ([3]; first compound 0.253 µM) | relative viability ([3]; first compound 0.8 µM) | relative viability ([3]; first compound 2.53 µM) | relative viability ([3]; first compound 8 µM) | relative viability ([4]; first compound 0.08 µM) | relative viability ([4]; first compound 0.253 µM) | relative viability ([4]; first compound 0.8 µM) | relative viability ([4]; first compound 2.53 µM) | relative viability ([4]; first compound 8 µM)
1 | NCI-H2023 | 0.32 | 0.413 | 0.479 | 0.301 | 0.324 | 1.02 | 1.09 | 1.02 | 0.858 | 0.856 | 0.963 | 0.751 | 0.849 | 1.02 | 0.794 | 0.816 | 0.886 | 0.615 | 0.683 | 0.607
2 | NCI-H2085 | 0.85 | 0.746 | 0.896 | 0.773 | 0.841 | 1.1 | 0.831 | 1.06 | 1.13 | 1.04 | 0.991 | 1.05 | 0.79 | 0.854 | 0.817 | 0.879 | 0.987 | 0.949 | 0.745 | 0.815
3 | NCI-H2087 | – | 0.281 | 0.246 | 0.253 | 0.245 | 0.866 | 0.82 | 0.779 | 0.737 | 0.671 | 1.22 | 1.13 | 0.91 | 1.02 | 0.899 | 1.07 | 0.925 | 0.907 | 0.924 | 0.716
4 | NCI-H2126 | 0.764 | 0.834 | 0.824 | 0.525 | 0.53 | 1.11 | 1.01 | 1.08 | 1.06 | 1.06 | 1.28 | 1.12 | 1.23 | 0.954 | 0.987 | 0.733 | 0.69 | 0.675 | 0.631 | 0.652
5 | NCI-H2228 | 0.27 | 0.31 | 0.241 | 0.333 | 0.409 | 1.27 | 1.17 | 1.17 | 1.02 | 0.93 | 0.933 | 0.791 | 0.777 | 0.688 | 0.51 | 0.708 | 0.501 | 0.521 | 0.629 | 0.629
6 | NCI-H2347 | 0.627 | 0.51 | – | 0.492 | 0.63 | 0.847 | 1.06 | 1.13 | – | 0.891 | 0.657 | 0.912 | 0.856 | – | 0.766 | 1 | 0.888 | 1.01 | 0.932 | 0.9
7 | NCI-H2405 | 0.701 | 0.732 | 0.801 | 0.763 | 0.716 | 0.891 | 0.99 | 0.961 | 0.954 | 0.961 | 1.15 | 1.02 | 1.09 | 0.998 | 1.09 | 1.05 | 1.12 | 1.05 | 0.95 | 0.955
8 | NCI-H3122 | 0.248 | 0.31 | 0.388 | 0.255 | 0.209 | 1.04 | 1.05 | 1.05 | 1.04 | 0.958 | 0.995 | 0.891 | 0.947 | 1.06 | 0.918 | 0.996 | 1.03 | 0.983 | 1.05 | 0.911
9 | PC-3 [JPC-3] | 0.772 | 0.811 | 0.853 | 0.779 | 0.825 | 0.832 | 0.773 | 0.713 | 0.716 | 0.813 | 1.02 | 1 | 0.986 | 0.925 | 0.853 | 0.98 | 0.961 | 0.885 | 0.797 | 0.894
10 | PC-14 | 0.618 | 0.714 | 0.673 | 0.674 | 0.814 | 0.984 | 1.01 | 0.79 | 0.776 | 0.834 | 1.02 | 1.01 | 0.83 | 0.973 | 1.06 | 0.988 | 1.03 | 0.86 | 0.95 | 1.02
11 | RERF-LC-KJ | 0.329 | 0.273 | 0.403 | 0.277 | 0.352 | 1.03 | 0.99 | 1.04 | 1.05 | 1.05 | 0.875 | 0.931 | 0.857 | 0.737 | 0.733 | 0.908 | 0.908 | 0.821 | 0.845 | 0.757
12 | SK-LU-1 | 0.263 | 0.311 | 0.272 | 0.263 | 0.307 | 0.932 | 1.26 | 0.968 | 1.12 | 1 | 1.01 | 0.857 | 0.859 | 0.719 | 0.732 | 1.1 | 1.3 | 1.04 | 0.809 | 0.787
13 | SW 1573 | 0.153 | 0.119 | 0.175 | 0.161 | 0.162 | 1.15 | 1.04 | 0.982 | 1.05 | 0.944 | 0.981 | 1.07 | 0.963 | 0.854 | 0.821 | 0.898 | 0.784 | 0.979 | 0.885 | 0.854
14 | UMC-11 | 0.211 | 0.188 | 0.202 | 0.2 | 0.209 | 1.01 | 0.728 | 0.722 | 0.623 | 0.67 | 1.04 | 1.09 | 0.935 | 0.939 | 1.03 | 0.999 | 1.01 | 0.979 | 0.911 | 0.93
